The values below come from ChEMBL document CHEMBL4765298, “Substituted oxindol-3-ylidenes as AMP-activated protein kinase (AMPK) inhibitors” (Eur J Med Chem, 2020).

Activity calls are given as the source filed them. The calls are words filed in the database; no cut-off is given here.

The target in data set [1] is 5'-AMP-activated protein kinase catalytic subunit alpha-1 (Homo sapiens) (UniProt Q13131). Briefly: Inhibition of recombinant human His6-tagged AMPK alpha1 at 20 uM using ULight CRBtide as substrate incubated for 1 hr followed by substrate addition and measured after 1 hr by TR-FRET assay relative to control. Conditions: time 2.0 hrs.
Sequence of 5'-AMP-activated protein kinase catalytic subunit alpha-1 (Homo sapiens) (Q13131 whole entry, looked up, the tested form may be a part): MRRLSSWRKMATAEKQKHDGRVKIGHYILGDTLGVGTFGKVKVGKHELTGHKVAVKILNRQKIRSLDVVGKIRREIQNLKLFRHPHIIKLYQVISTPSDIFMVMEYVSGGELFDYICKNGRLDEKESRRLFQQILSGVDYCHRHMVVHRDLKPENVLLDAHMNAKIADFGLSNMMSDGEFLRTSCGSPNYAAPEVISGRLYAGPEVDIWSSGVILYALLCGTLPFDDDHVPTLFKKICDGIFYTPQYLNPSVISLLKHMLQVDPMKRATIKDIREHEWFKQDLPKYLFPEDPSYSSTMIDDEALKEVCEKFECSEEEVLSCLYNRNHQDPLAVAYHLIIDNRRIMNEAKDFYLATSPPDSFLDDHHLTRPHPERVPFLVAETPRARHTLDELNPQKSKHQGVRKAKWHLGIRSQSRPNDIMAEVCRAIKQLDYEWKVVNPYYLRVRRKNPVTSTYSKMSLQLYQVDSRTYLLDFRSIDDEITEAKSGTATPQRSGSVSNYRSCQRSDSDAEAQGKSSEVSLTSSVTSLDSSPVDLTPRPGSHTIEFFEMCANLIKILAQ
For data set [2], the target named is 5'-AMP-activated protein kinase catalytic subunit alpha-2 (Homo sapiens) (UniProt P54646). Kind of data set: Inhibition of recombinant human His6-tagged AMPK alpha2 at 10 uM using ULight CRBtide as substrate incubated for 1 hr followed by substrate addition and measured after 1 hr by TR-FRET assay relative to control. Conditions: time 2.0 hrs.
Sequence of 5'-AMP-activated protein kinase catalytic subunit alpha-2 (Homo sapiens) (P54646 whole entry, looked up, the tested form may be a part): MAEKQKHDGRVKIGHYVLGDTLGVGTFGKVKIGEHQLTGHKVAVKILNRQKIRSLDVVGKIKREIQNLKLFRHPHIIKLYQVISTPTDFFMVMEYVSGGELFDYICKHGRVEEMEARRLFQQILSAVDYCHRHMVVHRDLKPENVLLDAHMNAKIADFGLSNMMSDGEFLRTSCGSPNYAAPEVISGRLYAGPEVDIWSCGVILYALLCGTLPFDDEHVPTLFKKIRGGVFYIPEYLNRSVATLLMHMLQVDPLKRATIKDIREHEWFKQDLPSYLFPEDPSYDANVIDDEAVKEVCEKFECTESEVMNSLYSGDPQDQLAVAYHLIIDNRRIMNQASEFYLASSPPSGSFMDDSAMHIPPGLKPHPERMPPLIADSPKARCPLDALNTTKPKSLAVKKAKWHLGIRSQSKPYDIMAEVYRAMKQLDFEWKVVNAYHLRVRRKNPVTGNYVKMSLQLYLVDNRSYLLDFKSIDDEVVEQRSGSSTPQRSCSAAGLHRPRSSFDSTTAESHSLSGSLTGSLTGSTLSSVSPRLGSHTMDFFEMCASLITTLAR
Data set [3] is described as follows: Cytotoxicity against human K562 cells assessed as reduction in cell viability at 50 uM incubated for 24 hrs by celltox-green assay relative to control. It counts as cell-based. Particulars: read-out: INH.
Data set [4] can be described thus: Cytotoxicity against human K562 cells assessed as reduction in cell viability at 50 uM incubated for 72 hrs by MTS assay relative to control. Particulars: read-out: INH. It counts as cell-based.
The nature of data set [5]: Cytotoxicity against human K562 cells assessed as reduction in cell viability at 50 uM incubated for 24 hrs by cell-titer glo assay relative to control. Particulars: read-out: INH. It counts as cell-based.
Data set [6] in a line: Cytotoxicity against human K562 cells assessed as reduction in cell viability at 50 uM incubated for 48 hrs by celltox-green assay relative to control. Conditions: read-out: INH. It counts as cell-based.
In data set [7] the test system is K562. Briefly: Cytotoxicity against human K562 cells assessed as reduction in cell viability incubated for 24 hrs by cell-titer glo assay. Particulars: K562, 24 h. It counts as cell-based.
In data set [8] the test system is K562. Kind of data set: Cytotoxicity against human K562 cells assessed as reduction in cell viability incubated for 72 hrs by MTS assay. Format: cell-based. Particulars: K562, 72 h.
Data set [9] concerns K562. Briefly: Cytotoxicity against human K562 cells assessed as reduction in cell viability incubated for 48 hrs by celltox-green assay. It counts as cell-based. Conditions: K562, 48 h.
Data set [10] in a line: Inhibition of recombinant human GST-tagged AMPK alpha1/beta1/gamma1 expressed in African green monkey COS7 cells assessed as reduction in AMPK beta 1 S108 phosphorylation incubated for 10 mins by [gamma 32-P]-ATP based radiometric scintillation counting analysis. It counts as cell-based.
For data set [11], the system named is K562. Briefly: Cytotoxicity against human K562 cells assessed as reduction in cell viability incubated for 24 hrs by celltox-green assay. It counts as cell-based. Conditions: K562, 24 h.
The nature of data set [12]: Cytotoxicity against human K562 cells assessed as reduction in cell viability at 1.56 uM incubated for 72 hrs by MTS assay relative to control. Format: cell-based. Particulars: read-out: INH.
Data set [13] has as its target Tyrosine-protein kinase JAK1 (Homo sapiens) (UniProt P23458). Briefly: Inhibition of wild-type human partial length JAK1 JH2 pseudokinase domain (R537 to D855 residues) expressed in mammalian expression system at 100 nM by Kinomescan method relative to control.
Data set [14] addresses Mast/stem cell growth factor receptor Kit (Homo sapiens) (UniProt P10721). Briefly: Inhibition of wild-type human partial length autoinhibited KIT (Y545 to D952 residues) expressed in mammalian expression system at 100 nM by Kinomescan method relative to control.
Data set [15] relates to K562. Briefly: Inhibition of AMPK in human K562 cells assessed as p-ACC (Ser79) level at 50 uM in glucose free medium and in presence of 2-Deoxy-D-glucose measured after 3 hrs by ELISA. It counts as cell-based.
Data set [16] has as its target Vascular endothelial growth factor receptor 2 (Homo sapiens) (UniProt P35968). Particulars: dose 100.0 nM.
Description: Inhibition of wild-type human partial length VEGFR2 (R787 to P1253 residues) expressed in mammalian expression system at 100 nM by Kinomescan method relative to control
In data set [17] the test system is K562. Briefly: Inhibition of AMPK in human K562 cells assessed as p-ACC (Ser79) level at 5 uM in glucose free medium and in presence of 2-Deoxy-D-glucose measured after 3 hrs by ELISA relative to control. Format: cell-based.
The target of data set [18] is Macrophage colony-stimulating factor 1 receptor (Homo sapiens) (UniProt P07333). Kind of data set: Inhibition of wild-type human partial length CSF1R (I564 to S939 residues) expressed in bacterial expression system at 100 nM by Kinomescan method relative to control.
Sequence of Macrophage colony-stimulating factor 1 receptor (Homo sapiens) (P07333 whole entry, the tested form may be a part): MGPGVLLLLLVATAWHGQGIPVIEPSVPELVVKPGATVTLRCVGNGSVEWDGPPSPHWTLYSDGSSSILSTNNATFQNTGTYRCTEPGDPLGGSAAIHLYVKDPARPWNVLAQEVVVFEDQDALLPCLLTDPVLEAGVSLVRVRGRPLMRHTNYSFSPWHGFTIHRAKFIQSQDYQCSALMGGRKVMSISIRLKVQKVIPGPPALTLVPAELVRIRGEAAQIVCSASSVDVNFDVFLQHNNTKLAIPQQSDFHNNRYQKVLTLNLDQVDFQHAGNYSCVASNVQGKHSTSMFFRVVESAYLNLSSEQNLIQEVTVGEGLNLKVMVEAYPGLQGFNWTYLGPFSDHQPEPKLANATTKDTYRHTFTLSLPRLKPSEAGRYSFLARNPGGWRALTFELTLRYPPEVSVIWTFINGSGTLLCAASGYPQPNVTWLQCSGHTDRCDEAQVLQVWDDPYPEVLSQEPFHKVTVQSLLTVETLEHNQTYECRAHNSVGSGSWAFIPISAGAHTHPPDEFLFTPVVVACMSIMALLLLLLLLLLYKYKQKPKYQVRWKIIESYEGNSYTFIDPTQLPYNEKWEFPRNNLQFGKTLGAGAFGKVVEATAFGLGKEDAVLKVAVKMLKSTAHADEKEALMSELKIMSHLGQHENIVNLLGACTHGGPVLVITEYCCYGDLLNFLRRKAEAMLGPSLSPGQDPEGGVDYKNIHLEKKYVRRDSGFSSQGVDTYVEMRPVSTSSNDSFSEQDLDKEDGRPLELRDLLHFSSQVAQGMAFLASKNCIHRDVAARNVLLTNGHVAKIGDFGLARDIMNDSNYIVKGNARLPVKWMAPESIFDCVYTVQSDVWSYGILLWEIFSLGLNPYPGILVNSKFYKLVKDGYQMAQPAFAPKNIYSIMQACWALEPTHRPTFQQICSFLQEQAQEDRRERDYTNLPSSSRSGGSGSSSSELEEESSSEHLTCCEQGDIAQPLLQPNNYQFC
Data set [19] deals with 5'-AMP-activated protein kinase catalytic subunit alpha-1 (Homo sapiens) (UniProt Q13131). Briefly: Inhibition of wild-type human partial length AMPK alpha1 (M1 to E306 residues) expressed in bacterial expression system at 100 nM by Kinomescan method relative to control.
Data set [20] addresses Vascular endothelial growth factor receptor 1 (Homo sapiens) (UniProt P17948). Briefly: Inhibition of wild-type human partial length FLT1 (R781 to F1239 residues) expressed in bacterial expression system at 100 nM by Kinomescan method relative to control.
The target in data set [21] is 5'-AMP-activated protein kinase catalytic subunit alpha-2 (Homo sapiens) (UniProt P54646). Briefly: Inhibition of wild-type human partial length AMPK alpha2 (M1 to E306 residues) expressed in bacterial expression system at 100 nM by Kinomescan method relative to control.
Data set [22] addresses Macrophage colony-stimulating factor 1 receptor (Homo sapiens) (UniProt P07333). Kind of data set: Inhibition of wild-type human partial length autoinhibited CSF1R (Y538 to S939 residues) expressed in mammalian expression system at 100 nM by Kinomescan method relative to control.
Data set [23] concerns K562. Kind of data set: Inhibition of AMPK in human K562 cells assessed as p-ACC (Ser79) level at 3.125 to […] in glucose free medium and in presence of 2-Deoxy-D-glucose measured after 3 hrs by ELISA. Particulars: dose 3.125-12.5 µM. Format: cell-based.
Data set [24] has as its target Tyrosine-protein kinase BTK (Homo sapiens) (UniProt Q06187). Briefly: Inhibition of wild-type human full length BTK (M1 to S659 residues) expressed in mammalian expression system at 100 nM by Kinomescan method relative to control.

Sequence of Mast/stem cell growth factor receptor Kit (Homo sapiens) (P10721 whole entry, the tested form may be a part): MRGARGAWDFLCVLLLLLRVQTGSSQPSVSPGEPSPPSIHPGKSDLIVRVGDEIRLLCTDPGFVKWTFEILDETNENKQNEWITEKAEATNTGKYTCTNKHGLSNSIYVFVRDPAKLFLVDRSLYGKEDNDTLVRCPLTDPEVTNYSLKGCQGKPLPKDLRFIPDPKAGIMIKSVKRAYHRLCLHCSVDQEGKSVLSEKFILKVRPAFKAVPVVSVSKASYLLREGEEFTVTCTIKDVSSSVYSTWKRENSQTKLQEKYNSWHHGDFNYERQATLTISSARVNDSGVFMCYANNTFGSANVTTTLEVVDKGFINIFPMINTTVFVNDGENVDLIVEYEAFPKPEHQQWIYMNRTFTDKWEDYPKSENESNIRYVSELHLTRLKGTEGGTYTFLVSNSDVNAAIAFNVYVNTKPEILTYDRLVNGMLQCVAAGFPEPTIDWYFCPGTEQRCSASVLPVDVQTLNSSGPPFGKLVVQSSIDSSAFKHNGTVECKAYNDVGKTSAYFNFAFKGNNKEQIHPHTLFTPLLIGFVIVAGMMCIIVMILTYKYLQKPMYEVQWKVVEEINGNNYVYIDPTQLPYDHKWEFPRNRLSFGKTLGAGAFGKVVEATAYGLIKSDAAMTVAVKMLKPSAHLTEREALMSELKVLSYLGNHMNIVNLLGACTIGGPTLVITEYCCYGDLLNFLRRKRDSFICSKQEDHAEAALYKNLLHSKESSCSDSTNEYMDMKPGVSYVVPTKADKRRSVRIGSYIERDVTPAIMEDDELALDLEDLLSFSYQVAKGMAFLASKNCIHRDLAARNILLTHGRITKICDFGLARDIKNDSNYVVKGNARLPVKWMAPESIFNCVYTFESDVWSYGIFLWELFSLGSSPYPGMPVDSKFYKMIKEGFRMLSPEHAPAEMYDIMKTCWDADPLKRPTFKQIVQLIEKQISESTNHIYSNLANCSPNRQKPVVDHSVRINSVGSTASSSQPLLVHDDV
Sequence of Vascular endothelial growth factor receptor 2 (Homo sapiens) (P35968 whole entry): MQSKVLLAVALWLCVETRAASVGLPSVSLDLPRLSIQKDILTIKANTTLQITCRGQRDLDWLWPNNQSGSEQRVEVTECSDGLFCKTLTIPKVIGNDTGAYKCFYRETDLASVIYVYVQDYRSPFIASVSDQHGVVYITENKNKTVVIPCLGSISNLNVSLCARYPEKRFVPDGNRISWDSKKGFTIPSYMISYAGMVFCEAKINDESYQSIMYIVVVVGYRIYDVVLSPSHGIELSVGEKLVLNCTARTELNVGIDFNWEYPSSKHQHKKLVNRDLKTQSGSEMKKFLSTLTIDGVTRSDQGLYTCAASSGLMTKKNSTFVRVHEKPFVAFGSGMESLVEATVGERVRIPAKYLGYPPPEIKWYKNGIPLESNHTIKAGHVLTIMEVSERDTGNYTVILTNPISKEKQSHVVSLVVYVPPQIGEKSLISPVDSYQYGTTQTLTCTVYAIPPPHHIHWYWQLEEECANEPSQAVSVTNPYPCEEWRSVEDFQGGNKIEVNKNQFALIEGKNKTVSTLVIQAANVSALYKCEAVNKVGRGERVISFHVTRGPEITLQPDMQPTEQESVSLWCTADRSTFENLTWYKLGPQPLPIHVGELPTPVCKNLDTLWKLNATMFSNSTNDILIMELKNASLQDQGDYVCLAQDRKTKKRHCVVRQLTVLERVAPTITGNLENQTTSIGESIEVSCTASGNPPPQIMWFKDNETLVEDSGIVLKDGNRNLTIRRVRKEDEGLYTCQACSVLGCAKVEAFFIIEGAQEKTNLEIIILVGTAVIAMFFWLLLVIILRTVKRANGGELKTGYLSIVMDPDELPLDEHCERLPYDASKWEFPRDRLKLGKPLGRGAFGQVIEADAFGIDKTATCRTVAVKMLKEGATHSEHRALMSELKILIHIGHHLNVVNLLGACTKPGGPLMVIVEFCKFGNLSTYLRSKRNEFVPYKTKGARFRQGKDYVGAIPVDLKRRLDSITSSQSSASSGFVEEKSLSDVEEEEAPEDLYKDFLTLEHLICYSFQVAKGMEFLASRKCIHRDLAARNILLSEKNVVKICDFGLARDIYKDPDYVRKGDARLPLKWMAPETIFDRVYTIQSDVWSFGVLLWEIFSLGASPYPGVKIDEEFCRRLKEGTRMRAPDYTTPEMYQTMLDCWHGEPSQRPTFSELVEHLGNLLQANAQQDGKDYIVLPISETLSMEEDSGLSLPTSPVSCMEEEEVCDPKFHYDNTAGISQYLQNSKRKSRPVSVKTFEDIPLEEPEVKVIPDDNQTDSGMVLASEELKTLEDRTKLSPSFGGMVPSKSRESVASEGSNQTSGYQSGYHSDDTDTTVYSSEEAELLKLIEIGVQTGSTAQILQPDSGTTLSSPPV
Sequence of Tyrosine-protein kinase BTK (Homo sapiens) (Q06187 whole entry, the tested form may be a part): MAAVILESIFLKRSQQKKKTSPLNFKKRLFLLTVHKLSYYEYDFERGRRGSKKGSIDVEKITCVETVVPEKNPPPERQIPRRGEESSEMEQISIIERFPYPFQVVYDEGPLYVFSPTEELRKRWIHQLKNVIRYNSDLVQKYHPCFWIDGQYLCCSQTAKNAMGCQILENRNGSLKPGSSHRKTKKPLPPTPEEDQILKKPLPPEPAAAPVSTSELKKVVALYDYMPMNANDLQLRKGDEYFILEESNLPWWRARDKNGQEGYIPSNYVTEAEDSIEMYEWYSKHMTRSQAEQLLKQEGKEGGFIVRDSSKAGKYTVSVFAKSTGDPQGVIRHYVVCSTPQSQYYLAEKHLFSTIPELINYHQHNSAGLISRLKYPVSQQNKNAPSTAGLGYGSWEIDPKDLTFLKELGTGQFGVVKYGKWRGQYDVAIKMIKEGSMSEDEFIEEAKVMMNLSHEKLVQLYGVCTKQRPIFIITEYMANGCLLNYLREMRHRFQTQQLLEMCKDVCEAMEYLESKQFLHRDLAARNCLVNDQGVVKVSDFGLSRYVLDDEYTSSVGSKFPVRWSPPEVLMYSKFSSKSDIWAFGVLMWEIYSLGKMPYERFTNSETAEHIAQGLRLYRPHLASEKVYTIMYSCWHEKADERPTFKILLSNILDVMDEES

Take `Cc1[nH]c(/C=C2\C(=O)Nc3ccc(F)cc32)c(C)c1C(=O)O`: the inhibition in data set [1] turned out to be 78%; in data set [2], 85%.

Turning to `CCN(CC)CCNC(=O)c1c(C)[nH]c(/C=C2\C(=O)Nc3ccc(CCNC(C)=O)cc32)c1C`, the cytotoxicity at 24 h, 50 µM amounted to 5% in data set [3] and 98% in [5]. Further, the cytotoxicity at 72 h, 50 µM in data set [4] worked out at 64%. Further, the cytotoxicity at 48 h, 50 µM in data set [6] was 42%.

Consider `CCN(CC)CCCNC(=O)c1c(C)[nH]c(/C=C2\C(=O)Nc3ccc(F)cc32)c1C`, for which the EC50 in the data set on K562 [7] is 18 µM; in the data set with K562 [8], 13.5 µM. The cytotoxicity at 24 h, 50 µM in data set [3] worked out at 63%.

In the case of `CCN(CC)CCNC(=O)c1c(C)[nH]c(/C=C2\C(=O)Nc3cc(Br)ccc32)c1C`, the inhibition in [1] is 89%.

As to `CCN(CC)CCNC(=O)c1c(C)[nH]c(/C=C2\C(=O)Nc3ccc(C#N)cc32)c1C`, the EC50 in the data set on K562 [9] amounted to 13.6 µM; with K562 [7], 19.9 µM. Moreover, the cytotoxicity at 24 h, 50 µM in data set [3] worked out at 75%. Further, in data set [4], the cytotoxicity at 72 h, 50 µM turned out to be 98%.

With `CNC(=O)c1ccccc1Oc1nc(Nc2cc(OC)c(OC)c(OC)c2)ncc1Br`, in [10], the IC50 was 0.4 µM.

For `CCCNC(=O)c1c(C)[nH]c(/C=C2\C(=O)Nc3ccc(F)cc32)c1C`, the values for the inhibition in data set [1] and in data set [2] were 30% and 48%, respectively.

As to `CCN(CC)CCNC(=O)c1c(C)[nH]c(/C=C2\C(=O)Nc3ccc(CCN=[N+]=[N-])cc32)c1C`, the EC50 in the data set with K562 [9] was found to be 4.81 µM; in the data set with K562 [7], 4.86 µM; with K562 [8] it was 3.83 µM. In addition, in data set [3], the cytotoxicity at 24 h, 50 µM stood at 90%.

Regarding `Cc1[nH]c(/C=C2\C(=O)Nc3ccc(F)cc32)c(C)c1C(=O)NCCN(C)C`, the 50% effective concentration (EC50) in the data set with K562 [8] was determined as 12.6 µM. In addition, the cytotoxicity at 24 h, 50 µM in [3] was 70%; in [5], 98%.

Take `CCNCCNC(=O)c1c(C)[nH]c(/C=C2\C(=O)Nc3ccc(F)cc32)c1C`: the EC50 in the data set on K562 [9] amounted to 11.9 µM; in the data set with K562 [7], 15.5 µM; with K562 [8], 13.6 µM; with K562 [11], 12.9 µM.

Take `CCN(CC)CCNC(=O)c1c(C)[nH]c(/C=C2\C(=O)Nc3cc(C(C)C)ccc32)c1C`: the inhibition in data set [2] is 69%.

With `CCN(CC)CCNC(=O)c1c(C)[nH]c(/C=C2\C(=O)Nc3cc(C)ccc32)c1C`, the inhibition in data set [2] was 88%.

As for `CCN(CC)CCNC(=O)c1c(C)[nH]c(/C=C2\C(=O)Nc3cc(Cl)ccc32)c1C`, the concentration for a half-maximal effect (EC50) came out at 4.18 µM in the data set with K562 [9], 3.83 µM with K562 [7] and 5.24 µM with K562 [11]. Besides, in data set [12], the cytotoxicity at 72 h, 1.56 µM came out at 65%.

Turning to `CCN(CC)CCNC(=O)c1c(C)[nH]c(/C=C2\C(=O)N(C)c3ccc(F)cc32)c1C`, the EC50 in the data set with K562 [7] turned out to be 11.8 µM; with K562 [8], 6.79 µM; in the data set with K562 [11], 12.1 µM. Further, the inhibition in [1] came to 40%; in data set [2], 17%.

`CCc1ccc2c(c1)NC(=O)/C2=C\c1[nH]c(C)c(C(=O)NCCN(CC)CC)c1C`: the figures for the inhibition in [1] and in data set [2] were 70% and 90%, respectively.

As for `CCN(CC)CCNC(=O)c1c(C)[nH]c(/C=C2\C(=O)Nc3ccc(CCO)cc32)c1C`, the inhibition in data set [13] worked out at 54%; in data set [14], 28%; in [16], 55%; with K562 [17], 23.7%; in data set [18], 24%; in [19] it was 49%. Further, the inhibition in [20] was determined as 42%; in [21] it was 35%. The inhibition result with K562 [15] was “Active”.

As to `CCN(CC)CCNC(=O)c1c(C)[nH]c(/C=C2\C(=O)Nc3ccc(CCC(N)=O)cc32)c1C`, the inhibition stood at 41% in data set [13]; 0% in data set [14]; 19% in data set [16]; 29.2% in the data set with K562 [17]; 18% in [18]; 14% in [22]. Also, the inhibition in [19] came to 29%; in data set [21], 64%; in [24] it was 0%. In addition, the inhibition entry in the data set with K562 [23] is “Active”.

With `CCN(CC)CCNC(=O)c1c(C)[nH]c(/C=C2\C(=O)Nc3cc(F)ccc32)c1C`, the EC50 in the data set with K562 [9] is 7.15 µM; with K562 [8], 2.85 µM. Besides, the cytotoxicity at 24 h, 50 µM was 61% in data set [3] and 98% in data set [5].

`CCN(CC)CCNC(=O)c1c(C)[nH]c(/C=C2\C(=O)Nc3ccc(CCC#N)cc32)c1C`: the figures for the EC50 in the data set with K562 [9], in the data set with K562 [7] and in the data set on K562 [8] were 13.6 µM, 17.8 µM and 14.8 µM, respectively. In data set [3], the cytotoxicity at 24 h, 50 µM stood at 64%. Also, the inhibition with K562 [17] amounted to 34.1%.
